Source: ChEMBL document CHEMBL1201862, “PubChem BioAssay data set” (2004)
Activity calls are given as the source filed them. No stated cut-off is given here; in the data, actives have a measured IC50 and inactives only a lower limit.

Molecular target: Envelope glycoprotein gp160 (Human immunodeficiency virus 1, UniProt Q6QLK5)
Experiment: inhibitors of HIV fusion peptide binding, primary screen, biochemical, uHTS, fluorescence dequenching (AID 1986)

Chain of Envelope glycoprotein gp160 (Q6QLK5 whole entry, the tested form may be a part): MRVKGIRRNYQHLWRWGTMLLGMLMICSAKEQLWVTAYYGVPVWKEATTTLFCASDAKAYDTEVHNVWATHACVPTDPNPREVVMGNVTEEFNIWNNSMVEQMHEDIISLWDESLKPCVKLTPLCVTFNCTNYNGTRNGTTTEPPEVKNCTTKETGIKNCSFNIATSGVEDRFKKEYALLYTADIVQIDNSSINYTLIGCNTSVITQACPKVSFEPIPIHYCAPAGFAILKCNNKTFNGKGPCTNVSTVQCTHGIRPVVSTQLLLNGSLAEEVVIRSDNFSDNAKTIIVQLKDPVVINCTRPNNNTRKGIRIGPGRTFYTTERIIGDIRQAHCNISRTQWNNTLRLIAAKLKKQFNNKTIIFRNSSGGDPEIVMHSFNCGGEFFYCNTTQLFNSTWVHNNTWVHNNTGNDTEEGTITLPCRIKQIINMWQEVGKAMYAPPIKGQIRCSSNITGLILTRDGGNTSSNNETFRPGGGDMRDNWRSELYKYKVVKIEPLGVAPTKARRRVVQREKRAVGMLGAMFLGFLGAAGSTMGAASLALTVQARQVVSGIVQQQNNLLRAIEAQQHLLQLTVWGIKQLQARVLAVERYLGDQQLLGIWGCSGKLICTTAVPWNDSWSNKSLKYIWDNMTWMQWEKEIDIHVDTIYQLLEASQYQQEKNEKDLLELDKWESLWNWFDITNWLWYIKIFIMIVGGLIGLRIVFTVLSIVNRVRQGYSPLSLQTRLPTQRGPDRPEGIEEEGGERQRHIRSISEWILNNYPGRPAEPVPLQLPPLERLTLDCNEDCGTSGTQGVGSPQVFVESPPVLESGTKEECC

Row | Structure (SMILES) | IC50
1 | Cc1cccc(C)c1-n1cccc1/C=C1\SC(=S)N(c2cccc(C(=O)O)c2)C1=O | 22.4 µM (active)
2 | CCCOc1ccc(C(=O)NNC(=S)NC(=O)c2cc(-c3ccccc3)nc3ccccc23)cc1 | 30.9 µM (active)
3 | CCC(C)(C)C1CCc2c(sc(NC(=O)c3ccccc3C(=O)O)c2C#N)C1 (stereo not drawn) | 12.9 µM (active)
